Like-named read-outs stand apart in the source and are kept apart here. Bridge positions count the residues as written; N and C are the ends. Square brackets hold non-standard residues; d marks the D form. Ends that are not written are not given here. * marks the point of attachment. pNA = O=[N+]([O-])c1ccc(N*)cc1; pGlu = O=C1CC[C@@H](C(=O)O)N1
Columns and labels:
[1] = ref Diapharma Group (supplier named); enzyme not given; cited from earlier work
Description: Human Activated Protein C (APC-1.0) was purchased from Enzyme Research Laboratories, Inc., South Bend, IN, USA. […] Activated Partial Thromboplastin Time (APTT) Test Kit (TC0306) was bought from Senkey Biotechnology Co., Ltd., Kunming, China. Prothrombin Time (PT) Test Kit (GMS10176) was purchased from GENMED Scientifics Inc., Shanghai, China. Streptavidin (SA) Biosensors (18-5019) were obtained from Sartorius AG, Göttingen, Lower Sa ...

[2] = cited from earlier work
Description: (§1) Anticoagulants are standard therapy for venous thromboembolism and arterial thrombosis-mediated disorders, particularly in acute settings.

mouse tail bleeding = assay: Tail bleeding time; type: in vivo, C57BL/6J mice; conditions: heparin sodium 1000 U/kg i.v., 10 min after administration; n = 6; vehicle 89.8 s
Procedure: The C57BL/6J mice (male, 6–8 weeks old) were purchased from Beijing Vital River Laboratory Animal Technology Co., Ltd. (Beijing, China). All animal studies were performed under the approval of the Ethics Committee of the Laboratory Animal Welfare of the Kunming Institute of Zoology, Chinese Academy of Sciences (IACUC-RE-2025-03-010).
The mouse tail-bleeding assay was performed to evaluate the bleeding risk associated with GC38 treatment. Male C57BL/6J mice (6–8 weeks, n = 6 per group) were randomized to receive intravenous injection of PBS (negative control), GC38 (2 or 4 mg/kg in PBS), or heparin sodium (1000 U/kg, positive control). The assay was conducted 10 min after administration. Mice were anesthetized, and a 2 mm segment of the tail tip was surgically transected using a sterile scalpel. Immediately after the incision, the tail was immersed in prewarmed PBS (37 °C) to facilitate blood flow. Bleeding time was recorded from the moment of the incision until the complete cessation of bleeding (no blood flow for 60 s).

thrombin = conditions: cited from earlier work
Description: as §1

[3] = venom of Eresus niger; cited from earlier work
Description: Studies have focused on the use of venom peptides for anticoagulation therapy. […] These peptides typically target key components of the coagulation cascade with high specificity, potency, and selectivity.

[4] = molecular target: Human Activated Protein C (human) (UniProt P04070)

Molecule: [pGlu]-Pro-Arg-pNA [S-2366, Chromogenix substrate S-2366]
- Km [1]: 200 µM
- kcat [1]: 190 s⁻¹

Molecule: bivalirudin: Another synthetic peptide, bivalirudin
- major bleeding events ([2]; percutaneous coronary intervention (PCI), compared to heparin): reduction in major bleeding events compared to heparin

Molecule: heparin
- bleeding risk ([2]; clinical): significant bleeding risks

Molecule: heparin sodium [reference compound]
- tail bleeding time (mouse tail bleeding): 127.6 s

Molecule: hirudin
- bleeding risk ([2]; heparin-induced thrombocytopenia (HIT) management): lower bleeding risk than conventional therapies
- thrombin inhibition (thrombin): thrombin inhibitor

Molecule: phospholipase A2
- anticoagulant activity [3]: anticoagulant activity

Molecule: GCSGKGARCAPSKCCSGLSCGRHGGNMYKSCEWNWKTG (disulfide 14-31, 2-15, 9-20) [GC38]
- APC enzymatic activity at Vmax on chromogenic substrate S-2366 (APC 0.7145 μM, S-2366 402.1 μM), GC38 0.1 to 10 μM, concentration-dependent; highest value at 10 μM [4]: 171%

— publication PMC12564639, “Discovery of a Novel Anticoagulant Cystine Knot Peptide from Spider Venom Gland Transcriptome” (International Journal of Molecular Sciences, 2025)
